Measurements as given in article PMC10017790 (Nature Communications, 2023).

Experiments:
SlTRI = molecular target: T1, SlTRI (Solanum lycopersicum, UniProt A0A3Q7IM65); type: biochemical; conditions: 200 uM NADPH, 0.1 M potassium phosphate pH 6.4, 30 C
T1 construct: gene LOC101265293; CDS cloned from cDNA into pET28a; recombinant His-tagged, Ni-NTA purified; Leu159 printed

O=C(O)C(=O)Cc1ccccc1 = test: purified protein; conditions: 2 mM NADPH, 0.1 M Tris-HCl pH 8.0, 1 h
AbLS = molecular target: T2, AbLS (Atropa belladonna, UniProt A0A3B6XRA5); conditions: 1 mM tropine and 1 mM phenyllactate infiltrated; AbUGT1 coexpressed; 24 h
T2 construct: gene LS
T2 sequence (A0A3B6XRA5 34-476 limits assumed): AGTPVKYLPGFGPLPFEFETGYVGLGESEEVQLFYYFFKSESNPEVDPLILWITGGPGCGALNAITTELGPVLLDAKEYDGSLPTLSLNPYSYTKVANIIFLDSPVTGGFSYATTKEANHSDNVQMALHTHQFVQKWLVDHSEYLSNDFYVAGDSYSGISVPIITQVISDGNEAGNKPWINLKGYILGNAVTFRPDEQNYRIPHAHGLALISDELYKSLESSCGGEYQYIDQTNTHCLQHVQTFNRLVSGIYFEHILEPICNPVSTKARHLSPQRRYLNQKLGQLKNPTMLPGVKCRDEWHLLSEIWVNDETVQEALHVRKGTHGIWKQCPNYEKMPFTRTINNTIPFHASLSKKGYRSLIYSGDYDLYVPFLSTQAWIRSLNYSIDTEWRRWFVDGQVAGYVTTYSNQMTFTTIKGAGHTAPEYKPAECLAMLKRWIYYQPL

CaPPAR = type: biochemical, Capsicum annuum; conditions: 2 mM NADPH, 0.1 M Tris-HCl pH 8.0, 1 h
PaPPAR = test system: T3, PaPPAR; type: biochemical, Petunia axillaris; conditions: 2 mM NADPH, 0.1 M Tris-HCl pH 8.0, 1 h
T3 construct: gene PPAR

T1 sequence (A0A3Q7IM65 9-272): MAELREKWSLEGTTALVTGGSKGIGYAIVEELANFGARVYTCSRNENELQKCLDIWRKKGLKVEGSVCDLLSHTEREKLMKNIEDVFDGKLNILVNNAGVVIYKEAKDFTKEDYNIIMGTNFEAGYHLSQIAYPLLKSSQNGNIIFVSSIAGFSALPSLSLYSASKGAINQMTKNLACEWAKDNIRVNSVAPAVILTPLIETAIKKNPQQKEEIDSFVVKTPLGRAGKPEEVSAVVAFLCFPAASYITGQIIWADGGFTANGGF

**Q.** Which Km (SlTRI) does the source give for `CN1[C@@H]2CC[C@H]1CC(=O)C2` [tropinone] here?
**A.** TRI from tomato also showed TRI activity

**Q.** With AbPPAR (Atropa belladonna) as the compound, how does the Km (O=C(O)C(=O)Cc1ccccc1) read?
**A.** 2085 ± 461.3 µM

**Q.** What about the kcat (O=C(O)C(=O)Cc1ccccc1) of the same compound?
**A.** 0.0098 ± 0.00074 s⁻¹

**Q.** Which results are given for SlPPAR (Solanum lycopersicum)?
**A.** Km (O=C(O)C(=O)Cc1ccccc1): 1380 ± 130 µM; kcat (O=C(O)C(=O)Cc1ccccc1): 0.03355 ± 0.00253 s⁻¹

**Q.** With `CN1[C@@H]2CC[C@H]1C[C@@H](O)C2` [tropine] as the compound, how does the “transient expression in N. benthamiana leaves, littorine by UPLC-MS” value (AbLS) read?
**A.** we detected littorine in tobacco leaves expressing DsLS and AbLS

**Q.** How did the Km (CaPPAR) turn out when `O=C(O)C(=O)Cc1ccccc1` [phenylpyruvic acid] was run?
**A.** 3020 ± 485 µM

**Q.** What about the Km (PaPPAR) of the same compound?
**A.** 2650 ± 374 µM
